Assay results: patent US20200121801A1, “DRUG DELIVERY CONJUGATES CONTAINING UNNATURAL AMINO ACIDS AND METHODS FOR USING” (priority 2012, published 2020)

Key:
[1] = Renal/hepatic secretion study; type: in vivo, mice; settings: 24 h post-dose, s.c.
Method: In a subsequent renal/hepatic secretion study, mice are housed in metabolic cages with a 6-h fast before subcutaneous administration of ^3H-EC1669 or ^3H-MTX. At 24 h post-dose, ˜14% more radioactivity is found in the pooled urine of ^3H-EC1669 dosed animals than in ^3H-MTX dosed animals. In contrast, twice as much radioactivity was found in the pooled feces of ^3H-MTX dosed animals than in EC1669 dosed animals. […] MTX reportedly causes hepatotoxicity as a major side effect, especially after long-term use. Without being bound by theory, it is believed herein that the preferential renal clearance of the compounds described herein will lead to fewer side effects such as hepatotoxicity.

[2] = Pharmacokinetic biodistribution of 3H-EC1669 and 3H-methotrexate; type: in vivo, Balb/c mice
Method: METHOD. Pharmacokinetic biodistribution. Studies in this section included a minimum of 3 test animals (mice) per time point. The pharmacokinetic biodistribution of test compound, such as ^3H-EC1669 (label on the drug), compared to positive control, such as ^3H-methotrexate (^3H-MTX), is observed in female Balb/c mice on folate-deficient diet. Compounds are administered as a single subcutaneous (SC) injection at 500 nmol/kg. Whole blood (>300 μL) along with ˜100 mg each of various tissues of interests are collected at various time points (such as 10 min, 30 min, 1 h, 2 h, 4 h, 8 h, 12 h, 24 h, and 72 h). The blood samples are placed in BD microtainer tubes (heparin) and centrifuged (4,000 g×3 min, 4° C.) to separate plasma (>100 μL). The remaining red blood cell (RBC) mass is washed 2× with phosphate buffered saline (PBS, pH 7.4) to obtain RBCs. The collected tissues are weighed and processed to determine ^3H-EC1669 and ^3H-MTX distribution: plasma, RBC, heart, lung, liver (the smallest lobe), spleen, kidney (1), intestine (above cecum), fecal material (from colon), muscle, and brain.

[3] = test system: KB-CR2000 (cisplatin resistant) tumors; assay: Cisplatin-resistant KB-CR2000 tumor model; type: in vivo, mice; settings: cisplatin 3 mg/kg twice per week, 2 weeks
[4] = test system: experimental autoimmune encephalomyelitis; assay: Autoimmune encephalomyelitis (EAE) model; type: in vivo, rats; settings: when dosed alone
Method: METHOD. Autoimmune Encephalomyelitis (EAE) Model. EAE is induced in rats by immunization against 25 μg of guinea pig myelin basic protein (MBP) formulated with CFA containing 1 mg of grounded Mycobacterium tuberculosis H37Ra. Pertussis toxin is given intraperitoneally (1 μg/rat) to enhance the organ-specific autoimmunity. Starting 8 days after induction, rats are divided into […]: (1) untreated control (n=8), (2) test compound (n=7), and (3) test compound plus competitor compound (n=7), such as EC0923 competition. All treatments start on day 8 after EAE induction. The animals in the EAE control group are left untreated. […] The clinical severity of EAE is monitored on a daily basis and graded on a scale of 0 to 5 per animal. The clinical signs of ascending paralysis of EAE rats are divided into a 0-5 scale: 0=No disease, 0.5=distal limp tail, 1=limp tail, 2=mild paraparesis; ataxia-weakened hind limbs, 3=moderate paraparesis; hind limbs paresis, 4=complete hind limb paralysis, 5=complete hind limb paralysis and incontinence (euthanasia). On day 16, the animals are euthanized and brain and spinal cords are fixed in formalin for histology.

[5] = Relative whole animal toxicity in folate deficient rats; type: in vivo; settings: 3 μmol/kg i.v. BIW, 2 weeks
Method: EXAMPLE. […] Test compounds are administered i.v. at equivalent doses to folate deficient rats.

[6] = Plasma stability / free drug release after s.c. dose (EC1496 vs EC0746); type: in vivo, rats; settings: 500 nmol/kg s.c.
Method: METHOD. Human serum stability. Compounds described herein are tested in human serum for stability using conventional protocols and methods. Briefly, test compound is administered to the test animal, such as by subcutaneous injection. The plasma concentration of the conjugate, and optionally one or more metabolites, is monitored over time. The results are graphed to determine Cmax, Tmax, half-life, and AUC for the test compound and metabolites.
EXAMPLE. […] EC1495 and EC0746 (comparator compound) are each administered at 500 nmol/kg by subcutaneous injection. The plasma concentration of the conjugate and the metabolites (aminopterin and aminopterin hydrazide) are monitored over time. […] As also shown in the following table, free drug is released as the parent aminopterin and the hydrazide derivative (EC0470).

[7] = Cytotoxicity of unconjugated tubulysins to cells in culture; type: cell-based; settings: cells in culture (cell line not given); read-out: typical IC50, cytotoxic to cells in culture
KB tumors = assay: Inhibition of tumor growth, s.c. KB tumors in nu/nu mice; type: in vivo; settings: 1.0 μmol/kg (only 2 doses due to toxicity), TIW, 2 weeks
Method: METHOD. Inhibition of Tumor Growth in Mice. […] For tumor cell inoculation, 1×10^6 M109 cells (a syngeneic lung carcinoma) in Balb/c strain, or 1×10^6 KB cells in nu/nu strain, in 100 μL are injected in the subcutis of the dorsal medial area (right axilla).
METHOD. Toxicity as Measured by Weight Loss. The percentage weight change of the test animals is determined on selected days post-tumor inoculation (PTI), and during dosing. The results are graphed.

[8] = 10 min post-dose, 500 nmol/kg s.c.

Q: With `CN(Cc1cnc2nc(N)nc(N)c2n1)c1ccc(C(=O)N[C@@H](CCC(=O)O)C(=O)O)cc1` [^3H-MTX, ^3H-methotrexate] as the compound, how does the “radioactivity in pooled feces vs EC1669 dosed animals” value [1] read?
A: The value was “twice as much”.

Q: What about the “captured by the liver” value [2, 8] of the same compound?
A: The value was 31 % ID/g.

Q: And the “found in the plasma” value [2, 8]?
A: The value was 5.2 % ID/g.

Q: What about the “retention in RBCs, spleen, liver, intestine, and feces” value ([2]; entire sampling period) of the same compound?
A: The value was “consistently higher than that of ^3H-EC1669”.

Q: Which “partial response (PR)” value [3] does the source give for `N.N.[Cl][Pt][Cl]` [cisplatin, reference compound] here?
A: The value was “did not produce even a single partial response”.

Q: With `N=c1[nH]c(N)nc2ncc(CNc3ccc(C(=O)N[C@@H](CCC(=O)NNC(=O)OCCSSC[C@@H](NC(=O)[C@H](CCC(=O)NC[C@H](O)[C@@H](O)[C@H](O)[C@H](O)CO)NC(=O)[C@@H](CCC(=O)O)NC(=O)[C@H](CCC(=O)NC[C@H](O)[C@@H](O)[C@H](O)[C@H](O)CO)NC(=O)[C@@H](CCC(=O)O)NC(=O)[C@H](CCC(=O)NC[C@H](O)[C@@H](O)[C@H](O)[C@H](O)CO)NC(=O)CC[C@H](NC(=O)c4ccc(NCc5cnc6nc(N)[nH]c(=O)c6n5)cc4)C(=O)O)C(=O)O)C(=O)O)cc3)nc12` [^3H-EC1669] as the compound, how does the “more radioactivity in pooled urine than in 3H-MTX dosed animals” value [1] read?
A: Its value is ~14%.

Q: And the tissue uptake at 10 min ([2]; female, Balb/c, mouse, plasma, sc, total radioactivity, 10 min post-dose, 500 nmol/kg s.c., read-out: found in the plasma)?
A: Its tissue uptake at 10 min is 12 %ID/g.

Q: Which treatment-related weight loss [4] does the source give for `N=c1[nH]c(N)nc2ncc(CNc3ccc(C(=O)N[C@@H](CCC(=O)NNC(=O)OCCSSC[C@@H](NC(=O)[C@H](CCC(=O)NC[C@H](O)[C@@H](O)[C@H](O)[C@H](O)CO)NC(=O)[C@@H](CCC(=O)O)NC(=O)[C@H](CCC(=O)NC[C@H](O)[C@@H](O)[C@H](O)[C@H](O)CO)NC(=O)[C@@H](CCC(=O)O)NC(=O)[C@H](CCC(=O)NC[C@H](O)[C@@H](O)[C@H](O)[C@H](O)CO)NC(=O)CC[C@@H](NC(=O)c4ccc(NCc5cnc6nc(N)[nH]c(=O)c6n5)cc4)C(=O)O)C(=O)O)C(=O)O)cc3)nc12` [EC1496] here?
A: The treatment-related weight loss was “not observed”.

Q: What about the “toxicity relative to comparative example EC0746” value [5] of the same compound?
A: Its value is “less toxic”.

Q: What about the “Cmax of conjugate, comparison” value [6] of the same compound?
A: The value was “higher Cmax than EC0746”.

Q: What about the “half-life, comparison with EC0746” value [6] of the same compound?
A: The value was “shorter half-life”.

Q: What about the “Free drug released (%): AMT” value ([6]; plasma) of the same compound?
A: The value was 5.13%.

Q: And the “Free drug released (%): AMT-hydrazide (EC0470)” value ([6]; plasma)?
A: The value was 3.15%.

Q: What about the “Free drug released (%): Total” value ([6]; plasma) of the same compound?
A: The value was 8.28%.

Q: For `CCCC(=O)OCN(C(=O)[C@@H](NC(=O)[C@H]1CCCCN1C)C(C)CC)[C@H](C[C@@H](OC(C)=O)c1nc(C(=O)N[C@@H](Cc2ccc(O)cc2)C[C@H](C)C(=O)NN)cs1)C(C)C` (some centres unmarked) [TubB-H, reference compound], which IC50 [7] is on record?
A: Its IC50 is ~1 nM.

Q: And the CR (KB tumors)?
A: Its CR is 0%.

Q: What about the Cures (KB tumors) of the same compound?
A: Its Cures is 0%.

Q: And the PR (KB tumors)?
A: Its PR is 0%.

Q: And the “Toxicity: Avg. Weight Loss” value (KB tumors)?
A: The value was >15%.

Q: And the “Toxicity: Deaths” value (KB tumors)?
A: The value was 20%.
